# Experimental data reported in US11566007B2, “Ras inhibitors” (Revolution Medicines, Inc., priority 2019, dated 2023).
# Experiments:
# Type in all cases: biochemical
# KRAS G13D = KRAS G13D (Homo sapiens (Human), UniProt P01116+P62937, G13D); assay: Ras-Raf (BRAF RBD) disruption / FRET / MOA assay, KRAS G13D; conditions: read-out: IC50* KRAS G13D FRET data
# Summary of the method: (§1)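 A 10-point, 3-fold dilution series topping at 30 μM final was incubated 3 h at 25° C with the Ras/cyclophilin A/BRAF RBD mixture.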
# KRAS G12D = KRAS G12D (Homo sapiens (Human), UniProt P01116+P62937, G12D); assay: Ras-Raf (BRAF RBD) disruption / FRET / MOA assay, KRAS G12D; conditions: Ras-Raf disruption/FRET/MOA assay; class symbols; read-out: KRAS G12D FRET data IC50
# Chain of KRAS G12D (P01116-2 other isoform, or with tags, fused parts or gaps G12D): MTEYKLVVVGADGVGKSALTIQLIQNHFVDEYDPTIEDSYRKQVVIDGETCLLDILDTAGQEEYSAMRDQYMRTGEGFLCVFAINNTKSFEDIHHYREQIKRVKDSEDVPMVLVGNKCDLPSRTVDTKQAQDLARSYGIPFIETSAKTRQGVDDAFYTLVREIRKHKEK
# Chain of KRAS G12D (P62937 whole entry): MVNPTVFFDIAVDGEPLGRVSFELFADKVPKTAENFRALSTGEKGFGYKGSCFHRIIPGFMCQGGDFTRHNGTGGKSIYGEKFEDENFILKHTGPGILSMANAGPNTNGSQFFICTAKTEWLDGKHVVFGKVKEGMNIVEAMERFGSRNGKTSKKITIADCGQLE
# Summary of the method: as §1
# K-Ras G12C = K-Ras G12C (Homo sapiens (Human), UniProt P01116+P62937, G12C); assay: Ras-Raf (BRAF RBD) disruption / FRET / MOA assay, KRAS G12C; conditions: KRAS G12C; Ras-Raf disruption/FRET/MOA assay; read-out: IC50* KRAS G12C FRET data
# Chain of K-Ras G12C (P01116-2 other isoform, or with tags, fused parts or gaps G12C): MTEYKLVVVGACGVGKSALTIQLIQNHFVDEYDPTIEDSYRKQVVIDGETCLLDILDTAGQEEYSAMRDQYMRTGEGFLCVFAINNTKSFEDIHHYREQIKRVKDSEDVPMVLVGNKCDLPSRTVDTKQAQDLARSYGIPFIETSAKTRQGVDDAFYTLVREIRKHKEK
# Chain of K-Ras G12C (P62937 whole entry): as the sequence (P62937 whole entry) above
# Summary of the method: as §1
# NRAS Q61R = NRAS Q61R (Homo sapiens (Human), UniProt P01111+P62937, Q61R); assay: Ras-Raf (BRAF RBD) disruption / FRET / MOA assay, NRAS Q61R; conditions: NRAS Q61R; Ras-Raf disruption/FRET/MOA assay; read-out: IC50* NRAS Q61R FRET data
# Chain of NRAS Q61R (P01111 whole entry Q61R): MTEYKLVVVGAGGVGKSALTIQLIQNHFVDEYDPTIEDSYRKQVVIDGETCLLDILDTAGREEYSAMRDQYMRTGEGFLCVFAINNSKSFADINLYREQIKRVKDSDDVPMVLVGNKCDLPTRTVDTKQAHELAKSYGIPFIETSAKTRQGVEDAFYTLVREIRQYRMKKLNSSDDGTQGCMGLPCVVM
# Chain of NRAS Q61R (P62937 whole entry): as the sequence (P62937 whole entry) above
# Summary of the method: (§2)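 Compounds (30 μM top final, 10-point 3-fold dilutions) incubated 3 h at 25° C with nucleotide-loaded Ras, cyclophilin A and BRAF RBD. Detection with 10 nM anti-His Eu-W1024 and 50 nM anti-GST allophycocyanin over another 1.5 h. Lowered TR-FRET ratio relative to DMSO wells gives IC50.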
# NRAS WT = NRAS WT (Homo sapiens (Human), UniProt P01111+P62937); assay: Ras-Raf (BRAF RBD) disruption / FRET / MOA assay, NRAS WT; conditions: read-out: IC50* NRAS WT FRET data
# Chain of NRAS WT (P01111 whole entry): as the sequence (P01111 whole entry Q61R) above, with R61Q counted along it
# Chain of NRAS WT (P62937 whole entry): as the sequence (P62937 whole entry) above
# Summary of the method: as §2
# KRAS G12V = KRAS G12V (Homo sapiens (Human), UniProt P01116+P62937, G12V); assay: Ras-Raf (BRAF RBD) disruption / FRET / MOA assay, KRAS G12V; conditions: read-out: IC50* KRAS G12V FRET data
# Chain of KRAS G12V (P01116-2 other isoform, or with tags, fused parts or gaps G12V): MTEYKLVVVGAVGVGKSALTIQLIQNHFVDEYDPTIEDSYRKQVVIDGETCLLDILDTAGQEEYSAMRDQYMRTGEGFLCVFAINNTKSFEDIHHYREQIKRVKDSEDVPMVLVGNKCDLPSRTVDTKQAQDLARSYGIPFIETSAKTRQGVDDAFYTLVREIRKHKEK
# Chain of KRAS G12V (P62937 whole entry): as the sequence (P62937 whole entry) above
# Summary of the method: as §1
# KRAS WT = KRAS WT (Homo sapiens (Human), UniProt P01116+P62937); assay: Ras-Raf (BRAF RBD) disruption / FRET / MOA assay, KRAS WT; conditions: read-out: IC50* KRAS WT FRET data
# Chain of KRAS WT (P01116-2 other isoform, or with tags, fused parts or gaps): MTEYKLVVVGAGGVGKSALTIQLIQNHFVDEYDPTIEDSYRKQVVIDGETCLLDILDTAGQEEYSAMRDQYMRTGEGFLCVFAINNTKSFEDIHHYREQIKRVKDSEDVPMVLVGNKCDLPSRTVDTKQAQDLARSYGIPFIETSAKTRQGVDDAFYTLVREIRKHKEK
# Chain of KRAS WT (P62937 whole entry): as the sequence (P62937 whole entry) above
# Summary of the method: as §1
# K-Ras G13C = K-Ras G13C (Homo sapiens (Human), UniProt P01116+P62937, G13C); assay: Ras-Raf (BRAF RBD) disruption / FRET / MOA assay, KRAS G13C; conditions: KRAS G13C; Ras-Raf disruption/FRET/MOA assay; read-out: IC50* KRAS G13C FRET data
# Chain of K-Ras G13C (P01116-2 other isoform, or with tags, fused parts or gaps G13C): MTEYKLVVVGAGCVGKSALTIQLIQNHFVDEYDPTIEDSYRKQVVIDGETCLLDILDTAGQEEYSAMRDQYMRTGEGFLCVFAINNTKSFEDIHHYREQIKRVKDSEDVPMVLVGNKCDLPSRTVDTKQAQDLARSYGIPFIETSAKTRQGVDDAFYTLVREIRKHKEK
# Chain of K-Ras G13C (P62937 whole entry): as the sequence (P62937 whole entry) above
# Summary of the method: as §1
# NRAS G12C = NRAS G12C (Homo sapiens (Human), UniProt P01111+P62937, G12C); assay: Ras-Raf (BRAF RBD) disruption / FRET / MOA assay, NRAS G12C; conditions: read-out: IC50* NRAS G12C FRET data
# Chain of NRAS G12C (P01111 whole entry G12C): as the sequence (P01111 whole entry Q61R) above, with G12C, R61Q counted along it
# Chain of NRAS G12C (P62937 whole entry): as the sequence (P62937 whole entry) above
# Summary of the method: as §1
# KRAS G12S = KRAS G12S (Homo sapiens (Human), UniProt P01116+P62937, G12S); assay: Ras-Raf (BRAF RBD) disruption / FRET / MOA assay, KRAS G12S; conditions: Ras-Raf disruption/FRET/MOA assay; class symbols; read-out: KRAS G12S FRET data IC50
# Chain of KRAS G12S (P01116-2 other isoform, or with tags, fused parts or gaps G12S): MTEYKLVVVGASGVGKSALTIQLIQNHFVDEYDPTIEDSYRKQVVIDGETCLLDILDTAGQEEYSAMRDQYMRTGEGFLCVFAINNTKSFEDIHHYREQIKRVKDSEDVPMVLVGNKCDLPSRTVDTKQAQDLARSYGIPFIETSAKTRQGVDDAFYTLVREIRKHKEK
# Chain of KRAS G12S (P62937 whole entry): as the sequence (P62937 whole entry) above
# Summary of the method: as §1
# Chain of KRAS G13D (P01116-2 other isoform, or with tags, fused parts or gaps G13D): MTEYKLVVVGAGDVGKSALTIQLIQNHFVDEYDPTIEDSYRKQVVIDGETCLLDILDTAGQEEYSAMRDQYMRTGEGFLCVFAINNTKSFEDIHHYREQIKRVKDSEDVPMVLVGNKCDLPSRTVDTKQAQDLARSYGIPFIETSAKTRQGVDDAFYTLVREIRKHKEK
# Chain of KRAS G13D (P62937 whole entry): as the sequence (P62937 whole entry) above
Structure (SMILES),IC50 (KRAS G13D) [µM],IC50 (KRAS G12D) [µM],IC50 (K-Ras G12C) [µM],IC50 (NRAS Q61R) [µM],IC50 (NRAS WT) [µM],IC50 (KRAS G12V) [µM],IC50 (KRAS WT) [µM],IC50 (K-Ras G13C) [µM],IC50 (NRAS G12C) [µM],IC50 (KRAS G12S) [µM]
"CO[C@@H](C)c1ncccc1-c1c2c3cc(ccc3n1CC(F)(F)F)N1CCO[C@@H](C[C@H](NC(=O)[C@H](C(C)C)N3CC[C@@]4(CCN(C(=O)C#CC(C)(C)N(C)C)C4)C3=O)C(=O)N3CCC[C@H](N3)C(=O)OCC(C)(C)C2)C1 (atropisomer, axis not shown) [Example A628]",> 10,> 10,< 0.01,> 10,> 10,1 to 10,> 10,1 to 10,< 0.01,1 to 10
"C=CC(=O)N(C)CCN1CCN(C(=O)N(C)[C@H](C(=O)N[C@H]2Cc3nc(cs3)-c3ccc4c(c3)c(c(-c3cccnc3[C@H](C)OC)n4CC)CC(C)(C)COC(=O)[C@@H]3CCCN(N3)C2=O)C(C)C)CC1 (atropisomer, axis not shown) [Example A630]",1 to 10,1 to 10,0.1 to 1,0.1 to 1,0.1 to 1,0.1 to 1,0.1 to 1,0.01 to 0.1,0.1 to 1,0.1 to 1
"C=CC(=O)N(C)[C@H]1CN(C(=O)N(C)[C@H](C(=O)N[C@H]2Cc3nc(cs3)-c3ccc4c(c3)c(c(-c3cccnc3[C@H](C)OC)n4CC)CC(C)(C)COC(=O)[C@@H]3CCCN(N3)C2=O)C(C)C)C[C@H]1F (atropisomer, axis not shown) [Example A631]",0.1 to 1,1 to 10,0.1 to 1,0.1 to 1,0.1 to 1,0.1 to 1,0.1 to 1,0.1 to 1,0.01 to 0.1,0.1 to 1
"C=CC(=O)N1CC[C@H](C(=O)N(C)[C@@H](CC(F)(F)F)C(=O)N[C@H]2Cc3cccc(c3)-c3ccc4c(c3)c(c(-c3cccnc3[C@H](C)OC)n4CC)CC(C)(C)COC(=O)[C@@H]3CCCN(N3)C2=O)C1 (atropisomer, axis not shown) [Example A639]",> 10,> 10,0.1 to 1,1 to 10,1 to 10,1 to 10,1 to 10,1 to 10,0.1 to 1,1 to 10
"CCn1c(-c2cccnc2[C@H](C)OC)c2c3cc(ccc31)N1CCO[C@@H](C[C@H](NC(=O)[C@@H](COC3CCN(C(=O)C#CC(C)(C)N(C)C)CC3)C(C)C)C(=O)N3CCC[C@H](N3)C(=O)OCC(C)(C)C2)C1 (atropisomer, axis not shown) [Example A643, (2R)-2-(((1-(4-(dimethylamino)-4-methylpent-2-ynoyl)piperidin-4-yl)oxy)methyl)-N-((2^2S,6^3S,4S)-1^1-ethyl-1^2-(2-((S)-1-methoxyethyl)pyridin-3-yl)-10,10-dimethyl-5,7-dioxo-6^1,6^2,6^3,6^4,6^5,6^6-hexahydro-1^1H-8-oxa-2(4,2)-morpholina-1(5,3)-indola-6(1,3)-pyridazinacycloundecaphane-4-yl)-3-methylbutanamide]",> 10,> 10,0.01 to 0.1,> 10,> 10,> 10,> 10,1 to 10,0.01 to 0.1,> 10
"CCn1c(-c2cccnc2[C@H](C)OC)c2c3cc(ccc31)-c1cccc(c1)C[C@H](NC(=O)[C@@H](COC1CN(C(=O)C#C[C@H]3COCCN3C)C1)C(C)C)C(=O)N1CCC[C@H](N1)C(=O)OCC(C)(C)C2 (atropisomer, axis not shown) [Example A644]",> 10,> 10,0.01 to 0.1,> 10,> 10,> 10,> 10,1 to 10,0.01 to 0.1,> 10
"CCn1c(-c2cccnc2[C@H](C)OC)c2c3cc(ccc31)-c1cccc(c1)C[C@H](NC(=O)[C@@H](COC1CN(C(=O)C#C[C@@H]3OCCCN3C)C1)C(C)C)C(=O)N1CCC[C@H](N1)C(=O)OCC(C)(C)C2 (atropisomer, axis not shown) [Example A648]",> 10,> 10,0.1 to 1,> 10,1 to 10,> 10,1 to 10,1 to 10,0.1 to 1,> 10
"CCn1c(-c2cccnc2[C@H](C)OC)c2c3cc(ccc31)-c1cnc(o1)C[C@H](NC(=O)[C@@H](COC1CN(C(=O)C#CC(C)(C)N(C)C)C1)C(C)C)C(=O)N1CCC[C@H](N1)C(=O)OCC(C)(C)C2 (atropisomer, axis not shown) [Example A649]",> 10,> 10,0.01 to 0.1,> 10,> 10,> 10,> 10,> 10,0.01 to 0.1,> 10
"CCn1c(-c2cccnc2[C@H](C)OC)c2c3cc(ccc31)-c1csc(n1)C[C@H](NC(=O)[C@H](C(C)C)N(C)C(=O)N1CCC3(CC1)CN(C(=O)/C=C/CN(C)C)C3)C(=O)N1CCC[C@H](N1)C(=O)OCC(C)(C)C2 (atropisomer, axis not shown) [Example A650]",0.1 to 1,0.1 to 1,0.01 to 0.1,0.1 to 1,0.1 to 1,0.1 to 1,0.1 to 1,0.01 to 0.1,0.01 to 0.1,0.1 to 1
"CCn1c(-c2cccnc2[C@H](C)OC)c2c3cc(ccc31)-c1csc(n1)C[C@H](NC(=O)[C@H](C(C)C)N(C)C(=O)N1CCC13CN(C(=O)C#CC(C)(C)N(C)C)C3)C(=O)N1CCC[C@H](N1)C(=O)OCC(C)(C)C2 (atropisomer, axis not shown) [Example A656]",1 to 10,1 to 10,0.1 to 1,0.1 to 1,0.1 to 1,1 to 10,0.1 to 1,1 to 10,0.1 to 1,0.1 to 1
"CO[C@@H](C)c1ncccc1-c1c2c3cc(ccc3n1CC(F)(F)F)-c1csc(n1)C[C@H](NC(=O)[C@H](C(C)C)N(C)C(=O)N1CCN(C(=O)/C=C/CN(C)C)C3(CC3)C1)C(=O)N1CCC[C@H](N1)C(=O)OCC(C)(C)C2 (atropisomer, axis not shown) [Example A664]",0.01 to 0.1,0.01 to 0.1,0.01 to 0.1,0.01 to 0.1,0.01 to 0.1,0.1 to 1,0.01 to 0.1,0.01 to 0.1,0.01 to 0.1,0.01 to 0.1
"C=CC(=O)N1CC(N2CCN(C(=O)N(C)[C@H](C(=O)N[C@H]3Cc4nc(cs4)-c4ccc5c(c4)c(c(-c4cccnc4[C@H](C)OC)n5CC)CC(C)(C)COC(=O)[C@@H]4CCCN(N4)C3=O)C(C)C)CC2)C1 (atropisomer, axis not shown) [Example A668]",1 to 10,1 to 10,0.01 to 0.1,0.1 to 1,0.1 to 1,0.1 to 1,0.1 to 1,0.01 to 0.1,0.01 to 0.1,0.1 to 1
"CO[C@@H](C)c1ncccc1-c1c2c3cc(ccc3n1CC(F)(F)F)-c1nc(co1)C[C@H](NC(=O)[C@@H](COC1CN(C(=O)C#CC(C)(C)N(C)C)C1)C(C)C)C(=O)N1CCC[C@H](N1)C(=O)OCC(C)(C)C2 (atropisomer, axis not shown) [Example A674]",> 10,> 10,0.01 to 0.1,> 10,> 10,> 10,> 10,1 to 10,0.01 to 0.1,> 10
"C=CC(=O)N1CC[C@@]2(COCCN2C(=O)N(C)[C@H](C(=O)N[C@H]2Cc3nc(cs3)-c3ccc4c(c3)c(c(-c3cccnc3[C@H](C)OC)n4CC)CC(C)(C)COC(=O)[C@@H]3CCCN(N3)C2=O)C(C)C)C1 (atropisomer, axis not shown) [Example A677]",1 to 10,1 to 10,0.1 to 1,0.1 to 1,0.1 to 1,1 to 10,0.1 to 1,1 to 10,0.1 to 1,0.1 to 1
